Measurements published in patent publication US5659012A, “Peptide which binds SH2 domains of protein tyrosine phosphatase SH-PTP1” (Whitehead Institute for Biomedical Research, priority 1995, dated 1997).

Tests used:
[1] = system: 32D cells expressing the wt EPO-R; assay: Proliferation assay (3H-Thymidine incorporation), EPO-dependent proliferation; assay type: cell-based; details: pools of 32D cells expressing wt EPO-R
Description: (§1) FIG. 2 is a graphic illustration of EPO-dependent proliferation of 32D cells expressing the wt EPO-R and the EPO-R mutant Y429, 431F. […] Each data point represents the mean of triplicate determinations±standard deviation.
(§2) To assess the role of SH-PTP1 in regulating proliferative signals generated by the EPO-R, the proliferation of 32D cells expressing wt EPO-R or EPO-R Y429,431F was measured. […] When grown in EPO, the half-maximal proliferation of pools of 32D cells expressing the wt EPO-R required 0.25 units EPO/ml and maximal proliferation required about 1 units/ml (FIG. 2). […] Pools of 32D cells expressing the mutant EPO-R Y429,431F achieved half-maximal proliferation in as little as 0.025 units EPO/ml, reaching a maximum rate at 0.1 units/ml (FIG. 2). At the highest EPO concentrations employed, the rate of proliferation of cell pools expressing the wt EPO-R or the EPO-R mutant Y429,431F was the same.
(§3) Proliferation assays were performed in 96 well plates with 200 μl/well. 5×10^4 32D cells/ml were seeded in the presence of indicated amounts of cytokines (EPO O--5 units/ml; IL3 0-100 units/ml). After 48 hours, 1 μCi 3H-Thymidine (DuPont NEN)/well was added for another 3 hours. The labeled cells were then harvested by a 96 well plate harvester (Scantron Instruments Inc.) and the amount of radioactively labeled DNA was quantitated in a scintillation counter.

[2] = system: 32D cells expressing the EPO-R mutant Y429,431F; assay: as above; assay type: cell-based
Description: as §1, §2, §3

[3] = pools of 32D cells expressing mutant EPO-R Y429,431F

With Erythropoietin [EPO] the “EPO required for maximal proliferation” value [1] was “about 1 units/ml”, the “EPO required for half-maximal proliferation” value ([1]; 48 h + 3 h 3H-Thymidine) was 0.25 units EPO/ml and the “amount of EPO allowing proliferation relative to the normal amount” value ([2]; mutant EPO-R unable to bind SH-PTP1 versus wt EPO-R) was “one-fifth to one-tenth”. The “EPO giving half-maximal proliferation” value [2, 3] was 0.025 units EPO/ml and the “EPO giving maximum rate of proliferation” value [2, 3] was 0.1 units/ml.
